Test [1] concerns the target 5-HT2A (Homo sapiens, UniProt P28223). Nature of the test: Radioligand binding.
In test [2] the target is DAT (Rattus norvegicus, UniProt P23977). Nature of the test: DAT-mediated release of [3H]MPP+ from rat brain synaptosomes. It is filed as biochemical. The conditions noted are these: for DAT/NET ratio: (DAT EC50)^-1 ÷ (NET EC50)^-1; for DAT/NET ratio / DAT/SERT ratio: higher value = greater DAT selectivity; for DAT/SERT ratio: (DAT EC50)^-1 ÷ (SERT EC50)^-1; for Emax: read-out: DAT-mediated release Emax; for fold lower release potency at DAT: relative to SERT (MDAI: relative to SERT and NET), synaptosomal release.

Test [3] addresses DAT (Homo sapiens, UniProt Q01959). As to conditions: HEK cells expressing cloned transporters, cited from earlier work; for release of preloaded [3H]DA: at 100 μM, ref Simmler et al. 2014b, Luethi et al. 2017.
Test [4] relates to 5-HT receptors. Nature of the test: Primary binding assay at 10 μM, 5-HT receptors. Also noted: species or system Human.
Test [5] deals with 5-HT1D (Homo sapiens, UniProt P28221). Nature of the test: Radioligand binding.
Test [6] deals with T1, σ2 (Rattus norvegicus, UniProt Q5U3Y7).
T1 sequence (Q5U3Y7 1-176): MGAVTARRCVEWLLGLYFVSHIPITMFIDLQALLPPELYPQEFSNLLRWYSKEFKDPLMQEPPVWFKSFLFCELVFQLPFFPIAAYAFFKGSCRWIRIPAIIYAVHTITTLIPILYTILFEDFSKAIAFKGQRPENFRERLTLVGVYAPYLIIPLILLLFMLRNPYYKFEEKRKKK
The test is described as follows: Radioligand binding.

Test [7] deals with SERT (Rattus norvegicus, UniProt P31652). The test is described as follows: SERT-mediated release of [3H]5-HT from rat brain synaptosomes. It is filed as biochemical. As to conditions: for Emax: read-out: SERT-mediated release Emax.
Test [8] has as its target 5-HT5A (Homo sapiens, UniProt P47898). Nature of the test: Radioligand binding.
The target in test [9] is 5-HT1B (Homo sapiens, UniProt P28222). The test is described as follows: Radioligand binding.
The target of test [10] is NET (Homo sapiens, UniProt P23975). As to conditions: HEK cells expressing cloned transporters, cited from earlier work; for release of preloaded [3H]NE: at 100 μM, ref Simmler et al. 2014b, Luethi et al. 2017.
The subject of test [11] is DAT. As to conditions: synaptosomal uptake assay; ref Johnson et al. (1991a); cited from earlier work.
Test [12] has as its system NET. Nature of the test: NET-mediated release of [3H]MPP+ from rat brain synaptosomes. The format is biochemical. The conditions noted are these: relative to SERT, synaptosomal release.
Test [13] concerns the target SERT (Homo sapiens, UniProt P31645). The conditions noted are these: HEK cells expressing cloned transporters, cited from earlier work; for release of preloaded [3H]5-HT: at 100 μM, ref Simmler et al. 2014b, Luethi et al. 2017.
The test system of test [14] is rats. The conditions noted are these: cited from earlier work.
Test [15] deals with NET. As to conditions: synaptosomal uptake assay; ref Johnson et al. (1991a); cited from earlier work.

Where two headings read alike, the source gives them in different places.

Sequence of 5-HT2A (P28223 whole entry): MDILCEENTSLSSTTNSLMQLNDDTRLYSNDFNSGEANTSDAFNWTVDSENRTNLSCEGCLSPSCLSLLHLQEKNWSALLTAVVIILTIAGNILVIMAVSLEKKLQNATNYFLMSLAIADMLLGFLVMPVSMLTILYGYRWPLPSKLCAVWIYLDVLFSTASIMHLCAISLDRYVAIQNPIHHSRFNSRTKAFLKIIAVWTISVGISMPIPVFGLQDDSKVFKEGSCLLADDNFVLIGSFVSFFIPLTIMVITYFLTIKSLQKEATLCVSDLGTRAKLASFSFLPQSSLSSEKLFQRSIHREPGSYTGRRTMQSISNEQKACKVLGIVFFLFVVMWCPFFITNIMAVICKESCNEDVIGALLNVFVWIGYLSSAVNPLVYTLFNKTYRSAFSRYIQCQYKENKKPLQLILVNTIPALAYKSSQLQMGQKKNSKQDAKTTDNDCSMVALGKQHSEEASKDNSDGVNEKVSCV
Sequence of 5-HT1D (P28221 whole entry): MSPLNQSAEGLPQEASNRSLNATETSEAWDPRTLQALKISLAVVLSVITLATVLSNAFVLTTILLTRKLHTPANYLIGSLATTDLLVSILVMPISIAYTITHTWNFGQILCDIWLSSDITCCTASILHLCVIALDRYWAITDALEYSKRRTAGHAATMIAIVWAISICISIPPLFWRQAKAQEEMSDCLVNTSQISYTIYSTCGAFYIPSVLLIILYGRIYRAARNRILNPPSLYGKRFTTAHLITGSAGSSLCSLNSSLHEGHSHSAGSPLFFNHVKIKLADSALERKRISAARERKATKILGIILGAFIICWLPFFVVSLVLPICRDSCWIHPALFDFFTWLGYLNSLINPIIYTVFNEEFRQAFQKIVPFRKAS
Sequence of 5-HT1B (P28222 whole entry): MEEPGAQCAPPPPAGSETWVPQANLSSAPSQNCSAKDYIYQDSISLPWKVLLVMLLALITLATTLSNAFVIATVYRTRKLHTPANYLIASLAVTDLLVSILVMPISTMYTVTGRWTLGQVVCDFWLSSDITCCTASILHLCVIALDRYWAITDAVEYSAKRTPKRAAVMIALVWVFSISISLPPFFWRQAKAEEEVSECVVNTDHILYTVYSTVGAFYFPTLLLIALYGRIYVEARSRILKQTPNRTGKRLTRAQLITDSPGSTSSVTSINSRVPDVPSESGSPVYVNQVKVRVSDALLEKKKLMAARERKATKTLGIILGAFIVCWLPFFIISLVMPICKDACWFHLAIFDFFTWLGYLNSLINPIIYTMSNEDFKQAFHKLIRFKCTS
Sequence of SERT (Homo sapiens, UniProt P31645) (P31645 whole entry): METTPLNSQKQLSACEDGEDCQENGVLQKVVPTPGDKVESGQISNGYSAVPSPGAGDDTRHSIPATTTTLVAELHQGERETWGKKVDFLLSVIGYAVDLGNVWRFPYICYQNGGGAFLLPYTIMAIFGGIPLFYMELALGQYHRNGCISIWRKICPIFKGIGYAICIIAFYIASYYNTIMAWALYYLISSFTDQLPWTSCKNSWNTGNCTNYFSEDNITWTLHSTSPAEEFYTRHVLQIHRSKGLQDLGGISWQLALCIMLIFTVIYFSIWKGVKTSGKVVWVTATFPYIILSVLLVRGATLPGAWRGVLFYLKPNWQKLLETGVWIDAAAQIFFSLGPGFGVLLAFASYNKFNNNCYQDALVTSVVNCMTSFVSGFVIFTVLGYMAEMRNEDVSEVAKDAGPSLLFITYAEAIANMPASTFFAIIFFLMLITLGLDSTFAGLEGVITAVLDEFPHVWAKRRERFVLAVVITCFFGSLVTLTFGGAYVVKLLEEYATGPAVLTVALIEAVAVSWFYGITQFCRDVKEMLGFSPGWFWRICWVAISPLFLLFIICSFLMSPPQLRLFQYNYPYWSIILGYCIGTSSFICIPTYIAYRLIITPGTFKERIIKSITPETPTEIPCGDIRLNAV
Sequence of DAT (Homo sapiens, UniProt Q01959) (Q01959 whole entry): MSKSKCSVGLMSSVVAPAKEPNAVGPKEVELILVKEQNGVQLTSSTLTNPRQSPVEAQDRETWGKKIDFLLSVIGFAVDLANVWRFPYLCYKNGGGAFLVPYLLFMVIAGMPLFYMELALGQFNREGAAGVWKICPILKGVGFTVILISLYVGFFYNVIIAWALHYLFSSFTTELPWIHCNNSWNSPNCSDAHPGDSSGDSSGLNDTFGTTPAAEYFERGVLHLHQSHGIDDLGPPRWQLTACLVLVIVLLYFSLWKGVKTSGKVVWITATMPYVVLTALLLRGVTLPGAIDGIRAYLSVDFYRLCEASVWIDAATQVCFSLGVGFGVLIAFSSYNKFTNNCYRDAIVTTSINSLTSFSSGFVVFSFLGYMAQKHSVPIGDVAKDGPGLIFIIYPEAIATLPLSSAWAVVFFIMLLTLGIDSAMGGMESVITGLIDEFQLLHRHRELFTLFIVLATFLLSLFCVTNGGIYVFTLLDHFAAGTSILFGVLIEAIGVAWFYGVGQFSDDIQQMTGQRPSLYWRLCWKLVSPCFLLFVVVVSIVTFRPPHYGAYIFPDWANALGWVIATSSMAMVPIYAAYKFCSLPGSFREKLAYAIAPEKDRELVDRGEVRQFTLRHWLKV
Sequence of NET (Homo sapiens, UniProt P23975) (P23975 whole entry): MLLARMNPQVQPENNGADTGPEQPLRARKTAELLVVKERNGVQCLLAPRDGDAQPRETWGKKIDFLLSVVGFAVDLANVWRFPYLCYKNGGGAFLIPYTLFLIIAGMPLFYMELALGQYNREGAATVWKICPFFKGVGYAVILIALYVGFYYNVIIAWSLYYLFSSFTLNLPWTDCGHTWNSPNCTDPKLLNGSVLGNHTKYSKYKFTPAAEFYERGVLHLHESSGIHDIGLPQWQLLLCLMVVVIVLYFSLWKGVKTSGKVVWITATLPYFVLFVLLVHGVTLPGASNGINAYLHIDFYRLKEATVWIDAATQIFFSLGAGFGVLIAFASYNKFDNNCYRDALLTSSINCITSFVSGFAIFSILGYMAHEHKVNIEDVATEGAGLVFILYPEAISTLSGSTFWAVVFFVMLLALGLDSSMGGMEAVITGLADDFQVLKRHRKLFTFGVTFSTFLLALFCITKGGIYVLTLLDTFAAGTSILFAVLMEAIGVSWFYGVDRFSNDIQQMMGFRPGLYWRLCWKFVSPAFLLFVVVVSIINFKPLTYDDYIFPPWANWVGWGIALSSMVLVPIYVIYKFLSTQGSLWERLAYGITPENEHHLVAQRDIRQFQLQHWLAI
Sequence of DAT (Rattus norvegicus, UniProt P23977) (P23977 whole entry): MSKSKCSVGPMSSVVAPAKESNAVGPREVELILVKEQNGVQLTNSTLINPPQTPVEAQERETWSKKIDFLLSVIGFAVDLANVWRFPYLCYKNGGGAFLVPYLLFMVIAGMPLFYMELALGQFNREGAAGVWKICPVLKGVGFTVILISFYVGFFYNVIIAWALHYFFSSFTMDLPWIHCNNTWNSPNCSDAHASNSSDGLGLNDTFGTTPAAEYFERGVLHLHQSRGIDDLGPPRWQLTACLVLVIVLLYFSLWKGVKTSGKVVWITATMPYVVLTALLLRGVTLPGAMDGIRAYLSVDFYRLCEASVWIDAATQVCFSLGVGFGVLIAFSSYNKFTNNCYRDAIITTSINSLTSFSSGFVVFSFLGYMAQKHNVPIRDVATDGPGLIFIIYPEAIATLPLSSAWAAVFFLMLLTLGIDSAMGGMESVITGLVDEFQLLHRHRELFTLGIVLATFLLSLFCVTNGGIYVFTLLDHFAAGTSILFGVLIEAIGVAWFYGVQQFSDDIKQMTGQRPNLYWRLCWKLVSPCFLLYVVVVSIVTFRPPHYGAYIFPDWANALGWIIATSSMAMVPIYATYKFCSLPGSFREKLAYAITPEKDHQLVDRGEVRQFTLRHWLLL
Sequence of 5-HT5A (P47898 whole entry): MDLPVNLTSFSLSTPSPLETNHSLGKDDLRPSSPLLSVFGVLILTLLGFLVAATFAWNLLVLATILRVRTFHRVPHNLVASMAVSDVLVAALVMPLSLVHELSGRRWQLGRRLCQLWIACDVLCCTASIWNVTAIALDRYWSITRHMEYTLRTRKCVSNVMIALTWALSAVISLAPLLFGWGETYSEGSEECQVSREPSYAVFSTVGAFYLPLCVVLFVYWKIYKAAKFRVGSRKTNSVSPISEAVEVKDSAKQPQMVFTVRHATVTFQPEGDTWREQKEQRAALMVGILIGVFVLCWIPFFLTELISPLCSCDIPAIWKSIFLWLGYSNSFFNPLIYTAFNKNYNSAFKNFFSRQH
Sequence of SERT (Rattus norvegicus, UniProt P31652) (P31652 whole entry): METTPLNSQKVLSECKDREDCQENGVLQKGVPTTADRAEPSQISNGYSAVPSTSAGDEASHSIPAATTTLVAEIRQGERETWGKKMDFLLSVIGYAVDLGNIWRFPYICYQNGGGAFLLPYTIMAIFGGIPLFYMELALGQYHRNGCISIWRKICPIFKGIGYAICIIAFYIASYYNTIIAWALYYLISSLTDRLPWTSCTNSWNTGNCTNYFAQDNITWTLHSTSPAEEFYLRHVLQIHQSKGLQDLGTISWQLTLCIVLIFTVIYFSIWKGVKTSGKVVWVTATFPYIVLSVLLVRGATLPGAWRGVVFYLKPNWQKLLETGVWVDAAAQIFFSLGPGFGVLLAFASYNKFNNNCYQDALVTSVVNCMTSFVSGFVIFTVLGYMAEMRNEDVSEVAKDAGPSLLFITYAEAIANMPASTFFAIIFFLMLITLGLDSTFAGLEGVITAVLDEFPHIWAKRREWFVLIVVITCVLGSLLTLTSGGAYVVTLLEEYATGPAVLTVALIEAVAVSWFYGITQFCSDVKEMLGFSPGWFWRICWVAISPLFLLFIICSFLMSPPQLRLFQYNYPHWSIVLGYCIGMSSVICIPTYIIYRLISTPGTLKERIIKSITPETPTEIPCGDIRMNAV

Turning to `NC1Cc2ccccc2C1` [2-AI, 2-aminoindan], the Ki in [1], in test [5], in test [6], in test [8] and in [9] was greater than 10 µM throughout. For the same molecule, the figures for the EC50 in [2] and in test [7] were 0.439 ± 0.038 µM and greater than 10 µM, respectively. Moreover, the DAT/NET ratio in [2] was found to be 0.20. Also, the DAT/SERT ratio in test [2] is greater than 22.78. Besides, the Emax in test [2] was 106%. Moreover, the “release of preloaded [3H]DA” value in test [3] is “induced the release”. Further, the “displacement at 5-HT receptors” value in test [4] was less than 50%. In [10], the “release of preloaded [3H]NE” value is “induced the release”.

For the molecule `COc1cc2c(cc1C)CC(N)C2` (stereo not shown) [MMAI, 5-methoxy-6-methyl-2-aminoindan], the Ki was greater than 10 µM in [1]; 2.56 µM in test [5]; greater than 10 µM in test [6]; greater than 10 µM in test [8]; 2.78 µM in [9]. The figures for the EC50 in test [2] and in test [7] were greater than 10 µM and 0.031 ± 0.005 µM, respectively. The DAT/NET ratio in [2] is greater than 0.31. Besides, the DAT/SERT ratio in [2] is listed as greater than 0.003. In addition, the “fold lower release potency at DAT” value in [2] was found to be 100 fold. In addition, in [11], the “fold difference [3H]5-HT uptake IC50 vs [3H]DA uptake IC50” value is recorded as 93 fold. Further, the “fold lower release potency at NET” value in test [12] was determined as 100 fold. Further, in test [13], the “release of preloaded [3H]5-HT” value is listed as “released”. In [14] (ref Marona-Lewicka et al. 1996), the place conditioning effect result is reported as “conditioned place aversion”. The Emax in test [7] was 99%. Further, in [15], the “fold difference [3H]5-HT uptake IC50 vs [3H]NE uptake IC50” value is on record as 55 fold.

`COc1ccc2c(c1)CC(N)C2` (stereo not shown) [5-MeO-AI, 5-methoxy-2-aminoindan]: the Ki in [1], in [5], in test [6], in test [8] and in test [9] was greater than 10 µM throughout. Also, the figures for the EC50 in test [2] and in test [7] were 2.65 µM and 0.134 ± 0.013 µM, respectively. Besides, the DAT/NET ratio in test [2] came out at 0.33. For the same molecule, in [2], the DAT/SERT ratio was determined as 0.05. The figures for the Emax in [2] and in test [7] were 117% and 104%, respectively. Also, the “fold lower release potency at DAT” value in [2] is 20 fold. For the same molecule, in test [12], the “fold lower release potency at NET” value is 6 fold.

Consider `NC1Cc2cc3c(cc2C1)OCO3` [MDAI, 5,6-methylenedioxy-2-aminoindan], for which the Ki in test [1], in [5], in [6], in test [8] and in test [9] was greater than 10 µM in each case. In addition, the EC50 in test [2] is 1.33 µM; in test [3] (read-out: release of preloaded [3H]DA EC50, ref Eshleman et al. 2017), 24 µM; in test [13] (read-out: release of preloaded [3H]5-HT EC50, ref Eshleman et al. 2017) it was 2.9 µM; in [7], 0.114 ± 0.015 µM; in test [10] (read-out: release of preloaded [3H]NE EC50, ref Eshleman et al. 2017) it was 0.57 µM. Also, the DAT/NET ratio in test [2] is listed as 0.09. In addition, the DAT/SERT ratio in [2] is 0.08. Moreover, the Emax in test [2] was 113%; in test [7] it was 102%. In addition, the “fold lower release potency at DAT” value in test [2] is recorded as 10 fold. In addition, the “release of preloaded [3H]DA” value in test [3] is listed as “not affected”. In addition, the “fold difference [3H]5-HT uptake IC50 vs [3H]DA uptake IC50” value in test [11] is given as 10 fold. In test [4], the “displacement at 5-HT receptors” value is less than 50%. Besides, the “selectivity for 5-HT vs. DA release” value in test [13] (ref Eshleman et al. 2017) is ~ 10 fold. Also, the “release of preloaded [3H]5-HT” value in test [13] is “released”. Besides, the place conditioning effect entry in [14] (ref Gatch et al. 2016) is given as “conditioned place preference”. Further, the “release of preloaded [3H]NE” value in [10] is listed as “released”.

These data come from PMC6848746 (Psychopharmacology, 2019).
